Assay [1] has as its system collagen type IV. Briefly: Alkali burn model: IHC collagen type IV intensity in anterior and posterior stroma (ImageJ). The format is in vivo, rabbit. Particulars: one month. As to the method: Worth, TX) and a 5 mm diameter circular Whatman No. 1 filter paper (Cat #1001-6508, Fisher Scientific) wetted with 100 μl of 1N NaOH solution. Following the alkali burn injury, the cornea was irrigated profusely with BSS. Each injured cornea also received one drop of ciprofloxacin (Alcon, Ft. Worth, TX, USA) ten minutes after surgery and four times a day for one week and at least 15 minutes apart from the study medications. […] Worth TX), at least 5 minutes apart, or 4) 50 μl of BSS. Multiplex immunohistochemistry (IHC) was performed using previously described methods^8 and primary antibodies (Table 7) confirmed by western blotting and IHC to recognize rabbit antigens or isotypic control antibodies (Thermo Fisher Scientific, Waltham, MA), and secondary fluorescent tagged antibodies (Table 7). The collagen type IV antibody (Cat. #AB769, Millipore, Temecula CA) was raised against purified human and bovine collagen type IV that had been affinity purified with human and bovine collagen type IV crosslinked to agarose and cross-absorbed by the manufacturer with human and bovine collagens type I, II, III, V and VI to eliminate cross-reactivity. This collagen type IV antibody was shown previously to bind rabbit collagen IV in IHC,^8,9 and recognizes the alpha-1/alpha-2 chains but not the alpha-3 to alpha-6 chains. The keratocan antibody is raised against peptide […]-OH (SEQ ID NO:1). This marker was used to identify keratocytes in situ. […] All corneas in each group had IHC for collagen type IV. Images from each cornea were converted to uniform 300 DPI, 875×568 pixel, files. […] The staining intensity within each box was determined with the analyze histogram function and the mean of three boxes was the intensity value in the anterior or posterior stroma for that cornea.

Assay [2] deals with rabbit corneas after alkali burn injury. Briefly: Alkali burn model: slit lamp opacity area and intensity (ImageJ). The class given is in vivo. Particulars: alkali burn 1N NaOH; topical six times per day, one month; 0.8 mg/ml losartan, 1% prednisolone acetate. As to the method: All animal treatments and care were approved by the Institutional Animal Care and Use Committee (IACUC) at the Cleveland Clinic Foundation (Cleveland, OH, USA) and the Animal Care and Use Review Office of the Department of the Army (Fort Detrick, MD). All rabbits were treated in accordance with the tenets of the ARVO Statement for the Use of Animals in Ophthalmic and Vision Research. Sixteen 10- to 15-week-old female New Zealand White rabbits weighing 2.5 to 3.0 kg each were included in this example. […]
At one month after sodium hydroxide exposure and treatments, with the rabbits under ketamine-xylazine general anesthesia, the eyes were dilated with two drops of 1% tropicamide (Akom Co., Lake Forest, IL) for thirty minutes. […] For each study eye, the total area of opacity was determined by outlining the opacity with the freehand selection tool using ImageJ 1.53a analysis software calibrated to mm^2. The “raw internal density” in pixels for the opacified area in each cornea was also determined using ImageJ. […]

Assay [3] concerns corneal neovascularization (CNV). Put plainly: Alkali burn model: central corneal neovascularization (corneal angiography). The format is in vivo, rabbit. Particulars: four corneas in each group, topical six times per day, one month. On the procedure: (§1) Alkali injuries were produced in one eye of rabbits with previously published methods^10 using 1N sodium hydroxide (Sigma, St. Louis, MO) in balanced salt solution (BSS, 0.64% sodium chloride, 0.075% potassium chloride, 0.048% calcium chloride dihydrate, […] magnesium chloride hexahydrate, 0.39% sodium acetate trihydrate, 0.17% sodium citrate dihydrate, pH 7.5, Alcon, H. Worth, TX) and a 5 mm diameter circular Whatman No. 1 filter paper (Cat #1001-6508, Fisher Scientific) wetted with 100 μl of 1N NaOH solution. Following the alkali burn injury, the cornea was irrigated profusely with BSS. Each injured cornea also received one drop of ciprofloxacin (Alcon, Ft. Worth, TX, USA) ten minutes after surgery and four times a day for one week and at least 15 minutes apart from the study medications.
Worth TX), at least 5 minutes apart, or 4) 50 μl of BSS.
All corneas had fluorescent angiography at the peak of dye passage in the cornea immediately after injection of 1.5 ml of 10% sodium fluorescein (McKesson, Irvine, TX) in the central ear vein with the slit lamp system and digital camera system using a “barrier filter” that only transmitted 520-530 nm, the peak of fluorescein emission, with broad illumination of the cornea, as previously described.^11

The test system of assay [4] is α-SMA-positive myofibroblasts. Put plainly: Alkali burn model: IHC α-SMA-positive stromal area and intensity (ImageJ). The format is in vivo, rabbit. Particulars: topical six times per day, one month. As to the method: as §1
Worth TX), at least 5 minutes apart, or 4) 50 μl of BSS. […]
The area of the α-SMA-positive stroma in mm^2 and the total α-SMA opacity in pixels were quantitated using standardized images obtained with a 10× objective on a Leica DM6B upright microscope equipped with an automated stage and Leica 7000 T camera using the LAS X software (Leica Microsystems, GmbH, Wetzlar, Germany). The means of three central corneal sections were analyzed from each cornea to provide the area of α-SMA-positive stroma and the total α-SMA opacity. The area of α-SMA-positive stroma in mm^2 for each cornea was determined from full diameter and thickness central corneal section images (all converted to 300 DPI, 885 width×500 height, files with identical +50% brightness increase in Photoshop for all images) with the ImageJ 1.53a analysis software using the freehand selection tool to delineate the area(s) of α-SMA-positive staining. […] In these same sections for each cornea, the total α-SMA-positive intensity in pixels was also determined with ImageJ, similarly by using the summation if separate α-SMA-positive areas were present. […]

For `CC(=O)OCC(=O)[C@@]1(O)CC[C@H]2[C@@H]3CCC4=CC(=O)C=C[C@]4(C)[C@H]3[C@@H](O)C[C@@]21C` [Prednisolone acetate, prednisolone acetate], in assay [1], the “mean intensity units of collagen type IV in the anterior stroma compared to vehicle treatment” value was “trend towards a decrease”. Besides, the “total opacity intensity in pixels (ImageJ) vs BSS vehicle group” value in assay [2] was “did not reach statistical significance”. For the same compound, the “corneas in which central corneal neovascularization developed” value in assay [3] is “one”. Besides, the “localization of α-SMA-positive myofibroblasts in the stroma” value in assay [4] is recorded as “more variable”.
